Results reported in PMC6429262, “Design and Synthesis of Novel Anti-Proliferative Emodin Derivatives and Studies on their Cell Cycle Arrest, Apoptosis Pathway and Migration” (Molecules, 2019).

Columns and labels:
[1] = test system: MCF-7 cells; experiment: CellTiter-Glo Luminescent Cell Viability Assay, MCF-7; type: cell-based, human
Method: (§1) The in vitro anti-proliferative activities of all the novel synthesized compounds were evaluated against HepG2 cells and MCF-7 cells by CellTiter-Glo® Luminescent Cell Viability Assay, using paclitaxel (a clinically used drug) as a positive control. Emodin (1) and compound 2 were also included for comparison.
(§2) HepG2 cells and MCF-7 cells were purchased from American Type Culture Collection (ATCC, Manassas, VA, USA). Cells were cultured in T75 flask (430641, Corning, New York, NY, USA), supplemented with high-glucose DMEM medium (Dulbecco’s modified Eagle’s medium, 11965-092, Gibco, New York, NY, USA) containing 10% Fetal bovine serum (FBS) and 1% penicillin (100 units/mL)-streptomycin (100 µg/mL) in a humidified incubator at 37 °C under 5% CO2 and 95% relative humidity (RH) atmosphere. The cells were harvested for metabolomics experiments using cell scrapers.
(§3) HepG2 cells and MCF-7 cells in 40 µL DMEM supplemented with 10% FBS were seeded at a density of 500 cells/well in 384-well cell culture plate (3570, Corning), respectively. After 24 h, the medium was substituted with fresh medium containing various sample solutions in DMSO (0.5%, v/v) at a dose range of 0.14–100 µM with 3-fold serial dilutions, and cells were cultured for another 48 h. Cells were cultured in medium without samples but 0.5% DMSO served as a control. All measurements were determined in triplicate for each treatment. After the sample treatment for 48 h, 20 µL CellTiter-Glo (G7573, Promega, Fitchburg, WI, USA) was added to each well containing cells and the contents were mixed for 2 min on an orbital shaker to induce cell lysis. The plates were then incubated at room temperature for 20 min to stabilize the luminescent signal. The luminescence was recorded on an Envision 2014 (Perkin Elmer, Waltham, MA, UAS). The IC50 values represented the samples’ concentrations required to inhibit 50% of cell proliferation and were calculated from a calibration curve by linear regression using GraphPad Prism 7.0 software (GraphPad Software, San Diego, CA, USA).

[2] = test system: HepG2 cells; experiment: CellTiter-Glo Luminescent Cell Viability Assay, HepG2; type: cell-based, human
Method: as §1, §2, §3

[3] = test system: L02 cells; experiment: Cytotoxic activity against human normal liver cells (L02); type: cell-based; conditions: Homo sapiens, L02, human normal liver L02 cells

IC50 ([1]; Homo sapiens, MCF7, 48 h, MCF-7 cells, 48 h, mean of three independent experiments): 52.7 ± 2.22 µM
IC50 ([2]; Homo sapiens, HepG2, 48 h, HepG2 cells, 48 h, mean of three independent experiments): 43.9 ± 1.28 µM
Structure (SMILES): Cc1cc(O)c2c(c1)C(=O)c1cc(O)cc(O)c1C2=O [Emodin, 3-methyl-1,6,8-trihydroxyanthraquinone]
Selectivity Index MCF-7 ([1]; IC50 on normal cells (L02)/IC50 on cancer cells (MCF-7)): 0.43
Selectivity Index HepG2 ([2]; IC50 on normal cells (L02)/IC50 on cancer cells (HepG2)): 0.51
IC50 [3]: 22.52 ± 0.18 µM
